The record followed here is patent US20230159597A1 (priority 2020, published 2023).

pIC50: −log10 of the molar value. [ ]: non-standard residue; d: D form. The star is where a group is joined. X1 = CC(C)CCC[C@@H](C)[C@H]1CC[C@H]2[C@@H]3CC=C4C[C@@H](OC(=O)C*)CC[C@]4(C)[C@H]3CC[C@]12C; PEG4 = NCCOCCOCCOCCOCCC(=O)O

The test system of one assay is SARS-CoV-2. The assay is classed as cell-based.
The next assay has as its target SARS CoV-2 glycoprotein (Severe acute respiratory syndrome coronavirus 2, UniProt P0DTC2). Kind of assay: cell-based.

For “Ac-SLTQINTTLLNLEYEMKKLEEVVKKLEESYIDLKELGSG[PEG4]C(X1)-NH2 [MERS lipid-peptide]”, the “reduction in SARS-CoV-2 infection” value in the assay with SARS-CoV-2 was 100%. Further, on SARS CoV-2 glycoprotein, the 90% effect concentration (IC90) was determined as 200 nM.

Turning to `CC[C@H](C)[C@H](NC(=O)CNC(=O)[C@H](CO)NC(=O)CNC(=O)[C@H](CCCNC(=N)N)NC(=O)[C@H](CCCNC(=N)N)NC(=O)[C@H](CCCNC(=N)N)NC(=O)[C@H](CCC(N)=O)NC(=O)[C@H](CCCNC(=N)N)NC(=O)[C@H](CCCNC(=N)N)NC(=O)[C@H](CCCCN)NC(=O)[C@H](CCCCN)NC(=O)[C@H](CCCNC(=N)N)NC(=O)CNC(=O)[C@H](Cc1ccc(O)cc1)NC(C)=O)C(=O)N[C@@H](CCC(=O)O)C(=O)N1CCC[C@H]1C(=O)N[C@@H](Cc1c[nH]cn1)C(=O)N[C@@H](CC(=O)O)C(=O)N[C@@H](Cc1c[nH]c2ccccc12)C(=O)N[C@H](C(=O)N[C@@H](CCCCN)C(=O)N[C@@H](CC(N)=O)C(=O)N[C@H](C(=O)N[C@H](C(=O)N[C@@H](CC(=O)O)C(=O)N[C@@H](CCCCN)C(=O)N[C@H](C(=O)N[C@@H](CC(=O)O)C(=O)N[C@@H](CCC(N)=O)C(=O)N[C@H](C(=O)N[C@H](C(=O)N[C@@H](Cc1c[nH]cn1)C(=O)N[C@@H](CC(=O)O)C(=O)N[C@@H](Cc1ccccc1)C(=O)N[C@H](C(=O)N[C@@H](CC(=O)O)C(=O)N[C@@H](CCCCN)C(=O)NCC(=O)N[C@@H](CO)C(=O)NCC(=O)N[C@@H](CO)C(=O)NCC(=O)N[C@@H](CSCC(=O)NCCOCCOCCOCCOCCC(=O)O[C@H]1CC[C@@]2(C)C(=CC[C@H]3[C@@H]4CC[C@H]([C@H](C)CCCC(C)C)[C@@]4(C)CC[C@@H]32)C1)C(N)=O)C(C)C)[C@@H](C)CC)[C@@H](C)CC)[C@@H](C)CC)[C@@H](C)O)[C@@H](C)CC)[C@@H](C)O` [TAT-EBO-PEG4-Chol], the pIC50 in the assay with ZEBOV Mayinga was 7.30; with Bundibugyo EBOV, 7.15; in the assay on ZEBOV Gueckedou C07, 7.70. For the same compound, the Max % inh with ZEBOV Mayinga was determined as 97.9%; in the assay with Bundibugyo EBOV it was 98.5%; in the assay on ZEBOV Gueckedou C07 it was 97.5%.

With `CC[C@H](C)[C@H](NC(=O)CNC(=O)[C@H](CO)NC(=O)CNC(=O)[C@H](CCCNC(=N)N)NC(=O)[C@H](CCCNC(=N)N)NC(=O)[C@H](CCCNC(=N)N)NC(=O)[C@H](CCC(N)=O)NC(=O)[C@H](CCCNC(=N)N)NC(=O)[C@H](CCCNC(=N)N)NC(=O)[C@H](CCCCN)NC(=O)[C@H](CCCCN)NC(=O)[C@H](CCCNC(=N)N)NC(=O)CNC(=O)[C@H](Cc1ccc(O)cc1)NC(C)=O)C(=O)N[C@@H](CCC(=O)O)C(=O)N1CCC[C@H]1C(=O)N[C@@H](Cc1c[nH]cn1)C(=O)N[C@@H](CC(=O)O)C(=O)N[C@@H](Cc1c[nH]c2ccccc12)C(=O)N[C@H](C(=O)N[C@@H](CCCCN)C(=O)N[C@@H](CC(N)=O)C(=O)N[C@H](C(=O)N[C@H](C(=O)N[C@@H](CC(=O)O)C(=O)N[C@@H](CCCCN)C(=O)N[C@H](C(=O)N[C@@H](CC(=O)O)C(=O)N[C@@H](CCC(N)=O)C(=O)N[C@H](C(=O)N[C@H](C(=O)N[C@@H](Cc1c[nH]cn1)C(=O)N[C@@H](CC(=O)O)C(=O)N[C@@H](Cc1ccccc1)C(=O)N[C@H](C(=O)N[C@@H](CC(=O)O)C(=O)N[C@@H](CCCCN)C(=O)NCC(=O)N[C@@H](CO)C(=O)NCC(=O)N[C@@H](CO)C(=O)NCC(=O)N[C@@H](CSCC(=O)NCCOCCOCCOCCOCCC(=O)Oc1c(C)c(C)c2c(c1C)CC[C@@](C)(CCC[C@H](C)CCC[C@H](C)CCCC(C)C)O2)C(N)=O)C(C)C)[C@@H](C)CC)[C@@H](C)CC)[C@@H](C)CC)[C@@H](C)O)[C@@H](C)CC)[C@@H](C)O` [TAT-EBO-PEG4-Toco], the pIC50 in the assay with ZEBOV Mayinga is 6.15; in the assay on Bundibugyo EBOV, 6.51; in the assay with ZEBOV Gueckedou C07, 7.00. The Max % inh is on record as 96.9% in the assay with ZEBOV Mayinga, 100% in the assay with Bundibugyo EBOV and 100% in the assay with ZEBOV Gueckedou C07.
